Source: patent US5078986A, “Method for enhancing magnetic resonance imaging using an image altering agent containing an excess of chelating agent” (Mallinckrodt Medical, Inc., priority 1990, dated 1992)
“Also recorded” adds a separate entry of the source. Like-named read-outs stand apart in the source and are kept apart here.

Assays:
[1] = system: isolated perfused rabbit heart
mice [2] = test: Acute intravenous toxicity in mice (Example 4); conditions: i.v.; for Average Change in Body Wt. of Survivors: 7 days; for LD50: 7-day observation
Method: In addition, the cardiotoxic effects of single bolus intracoronary arterial injections of 4, 8, 16 or 32 mg MnCl2 were evaluated in the isolated perfused rabbit heart (IPRH).
The aqueous vehicle for the suspension of negatively charged liposomes consisted of 0.9% NaCl buffered with 0.003M sodium phosphate, pH 7.4. The lipid concentration was 50 μmol/ml.
A total of 60 mice, 30 males (body weight range of 20-33.5 g) and 30 females (body weight range of 19.1-29.7 g) were used. Fifty of the mice were Swiss ICR, CD-1, obtained from Charles River and ten were Swiss CF-1 obtained from Sasco (Omaha, Nebr.).
The four test substances were administered via the lateral tail vein of the mouse at a rate of 1 ml/min with the following doses given.

[3] = Biodistribution of 54Mn radioactivity in rats (Example 5); format: in vivo, Sprague-Dawley rat
Excerpt: A total of forty Sprague-Dawley rats (20 male, 217-295 g; 20 female, 151-208 g; Charles River) were used. Drinking water was provided ad libitum. The animals, 2 males and 2 females per group, were selected randomly from their cages and were identified with indelible ink numbers at tail bases before test substance administration.
Rats were divided into 10 groups consisting of 2 male and 2 female rats per group. […] Immediately after dosing, rats were housed in individual metabolism cages. Ground Purina Laboratory Chow and water were supplied ad libitum to animals sacrificed at 24 and 48 hr after treatment. Rats from both ^54 NmNa2 EDTA and ^54 Mn-L treatment groups were sacrificed by cervical dislocation at 0.5, 2, 4, 24 and 48 hr after treatment, and the following samples were obtained: injection site, blood, liver, lung, spleen, heart, kidneys, salivary gland (submaxillary), brain, bone with marrow, muscle and fat. Urine samples were obtained from animals sacrificed at all intervals of 2 hr or more after injection and fecal samples were obtained from animals sacrificed at 24 and 48 hr after treatment. […] The entire organ weights were determined for the remaining tissues.
Levels of radioactivity in the biological specimens and aliquots of the injected test substances were determined using a gamma scintillation spectrometer (Model 1085, Nuclear Chicago Corp., Des Plaines, Ill.). Results were calculated on a percent dose/organ (or fluid) and a percent dose/g (or ml) basis using an HP-85 desk top computer (Hewlett Packard, Fort Collins, Colo.).
Kinetic data for the elimination of radioactivity from liver, spleen, kidneys, heart and bone with marrow were curve fitted by the peeling and least-square methods, to mono or bi-exponential equations: [formula] Where Ct=% dose/organ in tissue at time t.
Ai=Concentration at time 0 of the line described by each first order term.
Ki=Elimination rate constant for each first-order term.
The half-life (t 1/2) for each elimination phase was calculated as 0.693/Ki. The square of the correlation coefficient (r^2) for each elimination phase was calculated as an indication of variability.

mice [4] = test: Acute intravenous toxicity in mice (Example 7); format: in vivo, Swiss CF-1 albino mouse
Excerpt: The acute intravenous toxicity of disodium (diethylenetriaminepentaacetato)gadolinium (III) (composition C of Example 1) was studied.
A total of 16 Swiss CF-1 albino mice (8 male, 22.0-25.6 g; 8 female, 18.2-24.1 g) were used. Picric acid markings were used for individual identification.
The protocol of Example 4 was used. Groups of 2-4 mice, with sexes equally represented, received single intravenous doses of the test substance according to the following schedule: […]

[5] = system: excised hearts (normal and infarcted tissues); test: NMR imaging of excised hearts of dogs with coronary occlusion (Example 10); format: in vivo, dog; conditions: 2 ml/kg (0.34 mmol Gd(III)/kg), 10 min
Method: Selective catheterization of the left anterior descending coronary artery or circumflex coronary artery was achieved via a percutaneous intracarotid artery approach in anesthetized dogs. Gelfoam plugs were inserted into the coronary artery, via the catheter, in order to produce coronary occlusion. Animals were treated with lidocaine to prevent coronary arrhythmias and morphine to relieve pain.

[6] = system: normal and infarcted myocardial tissue, blood; test: Proton T1 values of myocardium and blood in dogs with coronary occlusion (Example 10); format: in vivo, dog; conditions: for Blood T1: before 510
[7] = system: renal medulla and renal cortex; test: Abdominal NMR imaging in rabbits (Example 11); format: in vivo, rabbit; conditions: 0.3 ml/kg (0.5 mmol Gd(III)/kg) i.v.
Method: Two rabbits were anesthetized and abdominal NMR images were obtained in the General Electric NMR scanner. Rabbits then received intravenous doses of 0.3 ml/kg (0.5 mmol Gd(III)/kg) of the preparation of composition D of Example 1 (GdNa2 DTPA) and additional abdominal NMR images were made over a period of two hours after dosing.

[8] = system: tissue and blood protons of rabbits; test: Tissue and blood proton T1 and T2 values in rabbits (Example 9); format: in vivo, rabbit; conditions: 0.51 mmol/kg i.v., 15 min
Method: The EKG was recorded with surface electrodes.

[9] = 32 mg, 0-15 S, only 1 heart, all others had VF

SMILES: [Cl][Mn][Cl] [MnCl2, manganese(II)chloride]
- Incidence of Ventricular Fibrillation (VF) ([1]; 4 mg): 0/6
- Mean % Change in Contractile Force (CF) ([1]; 4 mg, 0-15 S): -5%
- Mean % Change in Heart Rate (HR) ([1]; 4 mg, 0-15 S): -2%
- Mean % Change in Contractile Force (CF) ([1]; 4 mg, 15-30 S): -28%
- Mean % Change in Heart Rate (HR) ([1]; 4 mg, 15-30 S): -2%
- Mean % Change in Contractile Force (CF) ([1]; 4 mg, 1 min): -12%
- Mean % Change in Heart Rate (HR) ([1]; 4 mg, 1 min): -4%
- Mean % Change in Contractile Force (CF) ([1]; 4 mg, 2 min): +5%
- Mean % Change in Heart Rate (HR) ([1]; 4 mg, 2 min): -2%
- Incidence of Ventricular Fibrillation (VF) ([1]; 8 mg): 0/6
- Mean % Change in Contractile Force (CF) ([1]; 8 mg, 0-15 S): -74%
- Mean % Change in Heart Rate (HR) ([1]; 8 mg, 0-15 S): -8%
- Mean % Change in Contractile Force (CF) ([1]; 8 mg, 15-30 S): -38%
- Mean % Change in Heart Rate (HR) ([1]; 8 mg, 15-30 S): -7%
- Mean % Change in Contractile Force (CF) ([1]; 8 mg, 1 min): -17%
- Mean % Change in Heart Rate (HR) ([1]; 8 mg, 1 min): -7%
- Mean % Change in Contractile Force (CF) ([1]; 8 mg, 2 min): +2%
- Mean % Change in Heart Rate (HR) ([1]; 8 mg, 2 min): -6%
- Incidence of Ventricular Fibrillation (VF) ([1]; 16 mg): 2/6
- Mean % Change in Contractile Force (CF) ([1]; 16 mg, 0-15 S): -92%
- Mean % Change in Heart Rate (HR) ([1]; 16 mg, 0-15 S): -31%
- Mean % Change in Contractile Force (CF) ([1]; 16 mg, 15-30 S): -61%
- Mean % Change in Heart Rate (HR) ([1]; 16 mg, 15-30 S): -14%
- Mean % Change in Contractile Force (CF) ([1]; 16 mg, 1 min): -37%
- Mean % Change in Heart Rate (HR) ([1]; 16 mg, 1 min): -14%
- Mean % Change in Contractile Force (CF) ([1]; 16 mg, 2 min): -1%
- Mean % Change in Heart Rate (HR) ([1]; 16 mg, 2 min): -11%
- Premature ventricular contractions ([1]; 16 mg, hearts which did not fibrillate): two of the four hearts which did not fibrillate had premature ventricular contractions
- Incidence of Ventricular Fibrillation (VF) ([1]; 32 mg): 5/6
- Mean % Change in Contractile Force (CF) [1, 9]: -100%
- Mean % Change in Heart Rate (HR) [1, 9]: -100%
- Mean % Change in Contractile Force (CF) ([1]; 32 mg, 15-30 S): -64%
- Mean % Change in Heart Rate (HR) ([1]; 32 mg, 15-30 S): -17%
- Mean % Change in Contractile Force (CF) ([1]; 32 mg, 1 min): -33%
- Mean % Change in Heart Rate (HR) ([1]; 32 mg, 1 min): -17%
- Mean % Change in Contractile Force (CF) ([1]; 32 mg, 2 min): +2%
- Mean % Change in Heart Rate (HR) ([1]; 32 mg, 2 min): -14%
- A-V conduction block ([1]; 32 mg, the single heart which failed to fibrillate): complete A-V conduction block with ventricular standstill
- Incidence of arrhythmias (in words) ([1]; 4-32 mg intracoronary): dose-related incidence of arrhythmias
- Period of maximal CF and HR effects after injection ([1]; 4-32 mg intracoronary): 0 to 15 s
- Arrhythmias at the lower two doses ([1]; 4 and 8 mg): No arrhythmias were observed
- Time to return to control or stabilization at new baseline ([1]; CF and HR): two
- PR and QRS intervals ([1]; ECG): dose-related increases in PR and QRS intervals
- Reversion of VF ([1]; exception: a 32 mg dose): did revert spontaneously to normal sinus rhythm in each instance but one
- Cumulative 7-Day Mortalities/Number Dosed (mice [2]; female, 25 mg/kg): 1/5
- Average Change in Body Wt. of Survivors (mice [2]; female, 25 mg/kg): 2.7 g
- Cumulative 7-Day Mortalities/Number Dosed (mice [2]; female, 31.25 mg/kg): 4/5
- Average Change in Body Wt. of Survivors (mice [2]; female, 31.25 mg/kg): 3.5 g
- Cumulative 7-Day Mortalities/Number Dosed (mice [2]; female, 37.5 mg/kg): 4/5
- Average Change in Body Wt. of Survivors (mice [2]; female, 37.5 mg/kg): 3.6 g
- Acute intravenous toxicity (in words) (mice [2]): high degree of acute toxicity
- Cause of death (mice [2]): cardiac arrest the probable cause of death
- Convulsions (mice [2]): Transient convulsions, of moderate severity; also recorded: convulsions the primary pharmacotoxic sign
- Time of the one delayed death after dosing (mice [2]): 4 days
- LD50 (mice [2]; 10080 min): 28 mg/kg
- LD50 (mice [2]; listed as 1, 10080 min): 28.0 mg/kg
- LD50 expressed as Mn(II) (mice [2]; mmol/kg of Mn(II), 10080 min): 0.22 mmol/kg
- Cumulative 7-Day Mortalities/Number Dosed (mice [2]; male, 25 mg/kg): 3/5
- Average Change in Body Wt. of Survivors (mice [2]; male, 25 mg/kg): 1.2 g
- Cumulative 7-Day Mortalities/Number Dosed (mice [2]; male, 31.25 mg/kg): 2/5
- Average Change in Body Wt. of Survivors (mice [2]; male, 31.25 mg/kg): 4.6 g
- Cumulative 7-Day Mortalities/Number Dosed (mice [2]; male, 37.5 mg/kg): 4/5
- Average Change in Body Wt. of Survivors (mice [2]; male, 37.5 mg/kg): 3.4 g

SMILES: O=C([O-])CN(CCN(CC(=O)[O-])CC(=O)[O-])CC(=O)[O-].[54Mn+2].[Na+].[Na+] [^54 MnNa2 EDTA]
- Radioactivity in fat (in words) ([3]; 2 of 4 rats at 0.5, 2 and 4 hr): Unusually high levels of radioactivity
- Localization of remaining radioactivity ([3]; after 48 hr): primarily localized in the bone and marrow
- Urinary excretion at later time intervals ([3]; after the initial 2 hr): no additional urinary excretion of radioactivity was observed
- Blood clearance at 2 hr (in words) ([3]; by 2 hr after treatment): almost completely cleared from the blood
- Blood clearance (in words) ([3]; rat, i.v.): rapidly cleared from the blood
- Bone and marrow half-life ([3]; rat, i.v.): > 100 h
- Distribution, percent dose/organ (in words) ([3]; rat, i.v.): distributed primarily to the liver, bone with marrow, muscle and kidneys
- Fraction associated with rapid first phase hepatic elimination ([3]; rat, i.v.): Approximately 92%
- Fraction associated with rapid first phase renal elimination ([3]; rat, i.v.): Approximately 81%
- Heart half-life, monophasic elimination ([3]; rat, i.v.): approximately 8 hr
- Hepatic t 1/2, initial rapid elimination ([3]; rat, i.v.): < 1 h
- Hepatic t 1/2, secondary slow elimination phase ([3]; rat, i.v.): > 17 h
- Renal t 1/2, initial rapid elimination ([3]; rat, i.v.): < 1 h
- Renal t 1/2, secondary slow elimination phase ([3]; rat, i.v.): > 17 h
- Spleen half-life, monophasic elimination ([3]; rat, i.v.): ~ 2 hr
- Dose eliminated in the urine ([3]; within 2 hr after treatment): > 50 % of the dose
- Total dose excreted in the feces ([3]; within 48 hr after treatment): 31%

SMILES: O=C([O-])CN(CCN(CC(=O)[O-])CC(=O)[O-])CCN(CC(=O)[O-])CC(=O)[O-].[Gd+3].[Na+].[Na+] [GdNa2 DTPA, disodium (diethylenetriaminepentaacetato)gadolinium (III)]
- Dose up to which no deaths were observed (mice [4]; mouse, i.v.): 12000 mg/kg
- Ataxia (mice [4]; mouse, in vivo): slight ataxia
- Body weight (in words) (mice [4]; mouse, in vivo): slight reduction in body weight
- Respiratory distress (mice [4]; mouse, in vivo): respiratory distress was observed
- Time until all mice appeared normal (mice [4]; mouse, in vivo, iv): ≤ 6 h
- Acute intravenous toxicity profile (in words) (mice [4]; up to 12.0 g/kg): relatively safe mouse acute intravenous toxicity profile
- Image differences between normal and infarcted tissues [5]: marked differences between normal and infarcted tissues; also recorded: greater than that observed in hearts from dogs with infarcts who had not received a contrast enhancement agent
- T1 image of blood remaining in the ventricles [5]: much different T1 image
- T1, infarcted regions of heart muscle ([6]; 0.17 mmol Gd(III)/kg i.v., 10 min): 290 ms
- T1, normally perfused myocardial tissue ([6]; 0.17 mmol Gd(III)/kg i.v., 10 min, untreated 330): 180 ms
- Blood T1 ([6]; 0.34 mmol Gd(III)/kg, 5 minutes): 50 ms
- T1, infarcted tissue ([6]; 0.34 mmol Gd(III)/kg, 10 min): 230 ms
- T1, normally perfused myocardium ([6]; 0.34 mmol Gd(III)/kg, 10 min, untreated 330): 135 ms
- Blood T1 ([6]; 0.34 mmol Gd(III)/kg, 10 minutes): 100 ms
- Alteration of renal proton images [7]: Marked alteration of renal medulla and renal cortex proton images
- Time to peak effects [7]: ≤ 15 min
- Mean tissue T1, Fat [8]: 61 ms
- Mean tissue T1, Renal Medulla [8]: 130 ms
